Test results reported in patent publication US10039760B2, “Method of using diketopiperazines and composition containing them” (Ampio Pharmaceuticals, Inc., priority 2000, dated 2018).

Tested on: NHBE 6122 normal human bronchial epithelial cells
Experiment: PAF-induced release of IL-8 by NHBE 6122 cells (IL-8 ELISA of cell supernatants)
Assay type: cell-based
Procedure: NHBE 6122 normal human bronchial epithelial cells (Clonetics, San Diego, Calif.) were added to a 24-well tissue culture plate (Falcon, now BD Biosciences, Franklin Lakes, […]) in BEGM (bronchial epithelial growth medium; Clonetics) containing epinephrine (complete medium) at 37° C. and 5% CO2. After adhering, the cells were washed twice with BEGM medium without epinephrine. They were then incubated in complete medium or in complete medium containing 20 μM 3-methyl-2,5-diketopiperazine-6-acetic acid (DA-DKP; preparation described in Example 1, 5; stock solution made in HEPES buffered saline (HBSS; Clonetics) at 4 mM for 20 minutes at 37° C. and 5% CO2. Platelet activating factor (PAF; Sigma, St. Louis, Mo.) dissolved in dimethylsulfoxide (DMSO; tissue culture grade; Sigma, St. Louis, Mo.) was then added to a final concentration of 100 nM or 500 nM, and the cells were incubated for an additional 6 hours at 37° C. and 5% CO2. Medium containing DMSO and HBSS was used as a control.
The concentration of IL-8 in cell supernatants was determined by an ELISA using human IL-8 matched pair antibodies (Endogen, Cambridge, Mass.). The ELISA was performed using an ELISA kit from Endogen, Cambridge, Mass. according to the manufacturer's instructions with the following exceptions: (1) coating antibody at 1 μg/ml; (2) detecting antibody 30 ng/ml; StrepAvidin HRP diluted 1:32,000.

Row | Compound | IL-8 (Table 1, PAF 100 nM alone, 20,000 cells/well, 6 hours) [pg/mL] | IL-8 (Table 2, PAF 500 nM alone, 20,000 cells/well, 6 hours) [pg/mL] | IL-8 (Table 3, PAF 100 nM alone, cells split to 5,000 cells/well four days prior, grown to 70% confluence) [pg/mL] | IL-8 (Table 1, 20 min pre-incubation with DA-DKP 20 μM, then PAF 100 nM for 6 hours, 20,000 cells/well) [pg/mL] | IL-8 (Table 1, DA-DKP 20 μM alone, no PAF, 20,000 cells/well, 6 hours) [pg/mL] | IL-8 (Table 2, 20 min pre-incubation with DA-DKP 20 μM, then PAF 500 nM for 6 hours, 20,000 cells/well) [pg/mL] | IL-8 (Table 2, DA-DKP 20 μM alone, no PAF, 20,000 cells/well, 6 hours) [pg/mL] | IL-8 (Table 3, DA-DKP 20 μM alone, no PAF, cells split to 5,000 cells/well four days prior, grown to 70% confluence) [pg/mL] | IL-8 (Table 3, pre-incubation with DA-DKP 20 μM, then PAF 100 nM, cells split to 5,000 cells/well four days prior, grown to 70% confluence) [pg/mL] | IL-8 secretion induced by PAF (result in words, pre-incubation of the cells with the diketopiperazine)
1 | 1-O-alkyl-2-acetyl-sn-glycerol-3-phosphorylcholine [PAF, reference compound] | 1094.68 | 887.87 | 355.36 |  |  |  |  |  |  | 
2 | CC1NC(=O)C(CC(=O)O)NC1=O (stereo not shown) [DA-DKP, 3-methyl-2,5-diketopiperazine-6-acetic acid] |  |  |  | 714.91 | 803.11 | 542.5 | 837.84 | 184.86 | 201.93 | inhibited
